Test results from patent publication US20090247579A1, “2-[3H-THIAZOL-2-YLIDINEMETHYL]PYRIDINES AND RELATED COMPOUNDS AND THEIR USE” (CANCER RESEARCH TECHNOLOGY LIMITED, priority 2006, published 2009).
“And” between values parts separate entries of the source, which are not always exact repeats. Equal values may be shown once. Read-outs that look alike come from different tables or passages of the source.

Legend:
[1] = tested on: HS852; test: Cancer cell line panel, HS852 (melanoma); type: cell-based
Procedure: (§1) Relative drug sensitivities (Resistance Factor) and IC50 values were determined by a modified MTT assay (see, e.g., Mosmann, 1983; Plumb et al., 1989), as described below: • (1) Trypsinise a sub-confluent monolayer culture and collect cells in growth medium containing serum. Centrifuge the suspension (200 g, 5 minutes) to pellet cells, re-suspend in growth medium, and count cells. Dilute cells to a density of 5×10^3 cells/mL allowing 60 mL of cell suspension for 3 microtitre plates. Transfer cell suspension to a 10 cm petri dish, and with a multichannel pipette add 200 μL to each well of the central 10 columns of a flat bottomed 96-well plate (80 wells per plate) starting with column 2 and ending with column 11. Add 200 μL of growth medium to the 8 wells in columns 1 and 12. […] Glycine buffer is added (25 μL per well) to all wells containing DMSO. • (8) Absorbance is recorded at 570 nm with the wells in column 1, which contained medium and MTT but no cells used as a blank. • (9) A graph is plotted of absorbance (y-axis) against drug concentration (x-axis). The mean absorbance reading from the wells in columns 2 and 11 is used as the control absorbance and the IC50 concentration is determined as the drug concentration required to reduce the absorbance to half that of the control. IC10 or IC90 values can be determined in the same manner. […]

[2] = tested on: CALU; test: Cancer cell line panel, CALU (NSCLC); type: cell-based
Procedure: as §1

[3] = tested on: T84; test: Modified MTT assay, colon panel T84; type: cell-based
Procedure: as §1

[4] = tested on: HT29; test: Modified MTT assay, colon panel HT29; type: cell-based
Procedure: as §1

[5] = tested on: MCF7; test: Cancer cell line panel, MCF7 (breast); type: cell-based
Procedure: as §1

[6] = tested on: HS294; test: Cancer cell line panel, HS294 (melanoma); type: cell-based
Procedure: as §1

[7] = tested on: HCT116 (MLH1); test: Modified MTT assay, colon panel HCT116; type: cell-based, human
Procedure: as §1

[8] = tested on: A2 (MLH1−ve, MMR deficient); test: Modified MTT assay, A2 line (A2780/cp70 + chromosome 3, MLH1 -ve); type: cell-based, human; conditions: for IC50: A2 line; for RF (Resistance Factor): fold difference in resistance between A2 (MMR deficient) and A1 (MMR proficient)
Procedure: (§2) Relative drug sensitivities (Resistance Factor) and IC50 values were determined by a modified MTT assay (see, e.g., Mosmann, 1983; Plumb et al., 1989), as described below: • (1) Trypsinise a sub-confluent monolayer culture and collect cells in growth medium containing serum. Centrifuge the suspension (200 g, 5 minutes) to pellet cells, re-suspend in growth medium, and count cells. Dilute cells to a density of 5×10^3 cells/mL allowing 60 mL of cell suspension for 3 microtitre plates. Transfer cell suspension to a 10 cm petri dish, and with a multichannel pipette add 200 μL to each well of the central 10 columns of a flat bottomed 96-well plate (80 wells per plate) starting with column 2 and ending with column 11. Add 200 μL of growth medium to the 8 wells in columns 1 and 12. Put the plates in a plastic box and incubate in a humidified atmosphere at 37° C. for 2-3 days so that cells are in the exponential phase of growth for drug addition. • (2) Prepare a serial 5-fold dilution of the cytotoxic drug in growth medium to give 8 concentrations. Pipette 6 mL of growth medium in to each of 7 universal containers (30 mL). Prepare 10 mL of the highest concentration of the drug and transfer 1.5 mL of this solution to the first universal container. Mix and then transfer 1.5 mL to the next universal container. Continue until the seventh universal container is reached. The concentrations should be chosen so that the highest concentration kills most of the cells and the lowest kills none of the cells. Normally, three plates are used for each drug to give triplicate determinations within one experiment. • (3) The medium is removed from all the wells in columns 2 to 11. This can be achieved with a hypodermic needle attached to a suction line. Cells in the 8 wells in columns 2 and 11 are fed with 200 μL of fresh growth medium. The drug solutions are transferred to 10 cm petri dishes and 200 μL added to all 8 wells of a column. For ease of analysis arrange the drug solutions in order so that the highest is in column 3 down to the lowest in column 10. Plates are returned to the plastic box and incubated for 24 hours. • (4) At the end of the drug exposure period, the medium is removed from all wells containing cells and the cells are fed with 200 μL of fresh medium. • (5) The plates are fed daily for two more days. • (6) The plates are fed with 200 μL of fresh medium and 50 μL of the MTT solution (5 mg/mL in PBS) is added to all wells in columns 1 to 11. Plates are wrapped in aluminium foil and incubated for 4 hours in a humidified atmosphere at 37° C. • (7) The medium and MTT are then removed from the wells and the purple MTT-formazan crystals dissolved by addition of 200 μL of DMSO to all wells in columns 1 to 11. Glycine buffer is added (25 μL per well) to all wells containing DMSO. • (8) Absorbance is recorded at 570 nm with the wells in column 1, which contained medium and MTT but no cells used as a blank. • (9) A graph is plotted of absorbance (y-axis) against drug concentration (x-axis). The mean absorbance reading from the wells in columns 2 and 11 is used as the control absorbance and the IC50 concentration is determined as the drug concentration required to reduce the absorbance to half that of the control. IC10 or IC90 values can be determined in the same manner.
A1, E1, and A2 are derived by transfer of human chromosome 3 into A2780/cp70. MLH1 is located on chromosome 3.
IC50 values (μM) for A1 (MLH1+ve, MMR proficient) or E1 (MLH1+ve, MMR proficient) and A2 (MLH1−ve, MMR deficient) lines and Resistance Factors (RF) (the fold difference in resistance between the A2 line, MMR deficient, and the A1 line, MMR proficient) were determined based on the MTT assay described above for several compounds of the present invention (including, e.g., MMR201). Compounds showing increased activity against the MLH1 deficient A2 line compared to the MLH1 proficient A1 or E1 line have RF values less than 1.

[9] = tested on: A549; test: Cancer cell line panel, A549 (NSCLC); type: cell-based
Procedure: as §1

[10] = tested on: COLO320DM; test: Modified MTT assay, colon panel COLO320DM; type: cell-based
Procedure: as §1

[11] = tested on: A2780/cp70; test: Modified MTT assay, A2780/cp70 (cisplatin resistant, MMR deficient); type: cell-based, human; conditions: 24 hour drug exposure; for IC50: MTT; for A2780/cp70 RF (Resistance Factor): fold difference in resistance from parental A2780
Procedure: as §2
A2780/cp70 and A2780/mcp1 have lost expression of MLH1, have lost MMR activity, and have microsatellite instability compared to A2780. The CpG island at the MLH1 gene is methylated in A2780/cp70 and A2780/mcp1, but not A2780.
IC50 values (μM) for A2780, A2780/cp70, and A2780/mcp1 and Resistance Factors (RF) (the fold difference in resistance from parental A2780) were determined based on the MTT assay described above for several compounds of the present invention (including, e.g., MMR201).

[12] = tested on: OVCAR4; test: Cancer cell line panel, OVCAR4 (ovary); type: cell-based
Procedure: as §1

[13] = tested on: SW48 (MLH1); test: Modified MTT assay, colon panel SW48; type: cell-based
Procedure: as §1

[14] = tested on: WIL; test: Cancer cell line panel, WIL (NSCLC); type: cell-based
Procedure: as §1

[15] = tested on: C8161; test: Cancer cell line panel, C8161 (melanoma); type: cell-based
Procedure: as §1

[16] = tested on: OVCAR3; test: Cancer cell line panel, OVCAR3 (ovary); type: cell-based
Procedure: as §1

[17] = read-out: Cisplatin IC50, MMR proficient, p53 mut
[18] = read-out: Cisplatin IC50, MMR deficient, p53 wt

## CC[n+]1c(/C=C2\Sc3oc4ccccc4c3N2C)ccc2cc(C)ccc21.[I-] [MMR201]
[1]; read-out: MMR201
  IC50: 0.0753 ± 0.0071 µM
[2]; read-out: MMR201
  IC50: 0.38 ± 0.0075 µM
[3]; Homo sapiens, MMR proficient, p53 ?, read-out: MMR201 IC50
  IC50: 1.47 ± 0.175 µM
[4]; Homo sapiens, HT-29, MMR proficient, p53 mut, read-out: MMR201 IC50
  IC50: 0.118 ± 0.0091 µM
[5]; Homo sapiens, read-out: MMR201
  IC50: 0.87 ± 0.0548 µM
[6]; read-out: MMR201
  IC50: 0.105 ± 0.0051 µM
[7]; Homo sapiens, HCT-116, MMR deficient, p53 wt, read-out: MMR201 IC50
  IC50: 0.0379 ± 0.0031 µM
[8]; Homo sapiens, A2780/CP70
  IC50: 0.023 ± 0.001 µM
[8]
  RF (Resistance Factor): 0.19
[9]; Homo sapiens, read-out: MMR201
  IC50: 0.119 ± 0.0106 µM
[10]; Homo sapiens, COLO 320DM, MMR proficient, p53 mut, read-out: MMR201 IC50
  IC50: 0.594 ± 0.0285 µM
[11]; Homo sapiens, A2780/CP70
  IC50: 0.017 ± 0.001 µM
[11]
  A2780/cp70 RF (Resistance Factor): 0.29
[12]; Homo sapiens, OVCAR-4, read-out: MMR201
  IC50: 0.733 ± 0.0412 µM
[13]; Homo sapiens, MMR deficient, p53 wt, read-out: MMR201 IC50
  IC50: 0.0769 ± 0.0073 µM
[14]; read-out: MMR201
  IC50: 0.153 ± 0.0137 µM
[15]; Homo sapiens, read-out: MMR201
  IC50: 0.2542 ± 0.0004 µM
[16]; Homo sapiens, OVCAR-3, read-out: MMR201
  IC50: 0.253 ± 0.022 µM

## N.N.[Cl][Pt][Cl] [Cisplatin, reference compound]
[1]; read-out: Cisplatin
  IC50: 1.6 ± 0.09 µM
[2]; read-out: Cisplatin
  IC50: 7.25 ± 0.58 µM
[3]; read-out: Cisplatin IC50, MMR proficient, p53 ?
  IC50: 4.23 ± 0.86 µM
[4]; [17]
  IC50: 5.67 ± 0.64 µM
[5]; read-out: Cisplatin
  IC50: 1.78 ± 0.17 µM
[6]; read-out: Cisplatin
  IC50: 1.49 ± 0.08 µM
[7]; [18]
  IC50: 2.13 ± 0.03 µM
[8]
  IC50: 1.91 ± 0.087 µM
  RF (Resistance Factor): 2.7
[9]; read-out: Cisplatin
  IC50: 1.13 ± 0.04 µM
[10]; [17]
  IC50: 2.9 ± 0.29 µM
[11]
  IC50: 1.74 µM and 1.68 µM
  A2780/cp70 RF (Resistance Factor): 8.1 and 6.9
[12]; read-out: Cisplatin
  IC50: 1.64 ± 0.15 µM
[13]; [18]
  IC50: 1.82 ± 0.07 µM
[14]; read-out: Cisplatin
  IC50: 3.94 ± 0.22 µM
[15]; read-out: Cisplatin
  IC50: 3.46 ± 0.16 µM
[16]; read-out: Cisplatin
  IC50: 0.239 ± 0.02 µM
